Test results published in the NIST ThermoML archive (doi:10.1021/je8005369).
Numbers after ± are expanded uncertainties.

Details: Liquid; for mass density: Vibrating Wire Viscometer; for viscosity: Vibrating wire viscometry

CC(C)OC(C)C [diisopropyl ether]
Details	mass density [kg/m3]	viscosity [mPa·s]
243.15 K, 100 kPa	772.385 ± 1.6	0.6191 ± 0.015
243.15 K, 4660 kPa	776.195 ± 1.6	0.6466 ± 0.016
243.15 K, 10070 kPa	780.42 ± 1.6	0.6826 ± 0.016
243.15 K, 15370 kPa	784.377 ± 1.6	0.7177 ± 0.017
243.15 K, 20860 kPa	788.392 ± 1.6	0.7529 ± 0.018
253.15 K, 100 kPa	762.804 ± 1.6	0.5343 ± 0.013
253.15 K, 4720 kPa	766.842 ± 1.6	0.5601 ± 0.014
253.15 K, 9990 kPa	771.35 ± 1.6	0.5898 ± 0.014
253.15 K, 15400 kPa	775.704 ± 1.6	0.6187 ± 0.015
253.15 K, 20740 kPa	779.692 ± 1.6	0.65 ± 0.016
263.15 K, 100 kPa	753.037 ± 1.6	0.4687 ± 0.012
263.15 K, 4470 kPa	757.298 ± 1.6	0.4896 ± 0.012
263.15 K, 9490 kPa	761.805 ± 1.6	0.5141 ± 0.013
263.15 K, 14490 kPa	766.126 ± 1.6	0.5388 ± 0.013
263.15 K, 19640 kPa	770.142 ± 1.6	0.5638 ± 0.014
273.15 K, 100 kPa	743.309 ± 1.6	0.4142 ± 0.011
273.15 K, 4690 kPa	748.026 ± 1.6	0.4344 ± 0.011
273.15 K, 10010 kPa	753.179 ± 1.6	0.4579 ± 0.011
273.15 K, 15290 kPa	757.99 ± 1.6	0.4815 ± 0.012
273.15 K, 20420 kPa	762.359 ± 1.6	0.5042 ± 0.013
283.15 K, 100 kPa	733.393 ± 1.5	0.3689 ± 0.0096
283.15 K, 4700 kPa	738.525 ± 1.5	0.3877 ± 0.01
283.15 K, 10100 kPa	744.147 ± 1.6	0.4088 ± 0.01
283.15 K, 15460 kPa	749.321 ± 1.6	0.4306 ± 0.011
283.15 K, 21360 kPa	754.612 ± 1.6	0.456 ± 0.011
293.15 K, 100 kPa	723.318 ± 1.5	0.3311 ± 0.0088
293.15 K, 4470 kPa	728.638 ± 1.5	0.3474 ± 0.0091
293.15 K, 9590 kPa	734.393 ± 1.5	0.3671 ± 0.0096
293.15 K, 14750 kPa	739.779 ± 1.5	0.3855 ± 0.0099
293.15 K, 20450 kPa	745.301 ± 1.6	0.4079 ± 0.01
303.15 K, 100 kPa	713.113 ± 1.5	0.299 ± 0.0081
303.15 K, 4440 kPa	718.817 ± 1.5	0.3124 ± 0.0084
303.15 K, 9500 kPa	725.014 ± 1.5	0.331 ± 0.0088
303.15 K, 14650 kPa	730.787 ± 1.5	0.3496 ± 0.0092
303.15 K, 19650 kPa	735.942 ± 1.5	0.3668 ± 0.0096
313.15 K, 100 kPa	702.804 ± 1.5	0.2703 ± 0.0076
313.15 K, 4840 kPa	709.502 ± 1.5	0.2869 ± 0.0079
313.15 K, 10140 kPa	716.438 ± 1.5	0.3038 ± 0.0082
313.15 K, 15550 kPa	722.843 ± 1.5	0.3213 ± 0.0086
313.15 K, 21490 kPa	729.298 ± 1.5	0.3414 ± 0.009
323.15 K, 100 kPa	692.225 ± 1.5	0.2468 ± 0.0071
323.15 K, 4760 kPa	699.461 ± 1.5	0.2615 ± 0.0074
323.15 K, 10370 kPa	707.408 ± 1.5	0.2776 ± 0.0077
323.15 K, 15480 kPa	713.832 ± 1.5	0.2946 ± 0.008
323.15 K, 20780 kPa	720.04 ± 1.5	0.311 ± 0.0084
333.15 K, 100 kPa	681.435 ± 1.4	0.2254 ± 0.0067
333.15 K, 4750 kPa	689.427 ± 1.5	0.2389 ± 0.0069
333.15 K, 10360 kPa	697.963 ± 1.5	0.2554 ± 0.0073
333.15 K, 15670 kPa	705.137 ± 1.5	0.2716 ± 0.0076
333.15 K, 20890 kPa	711.63 ± 1.5	0.2848 ± 0.0078
343.15 K, 130 kPa	670.401 ± 1.4	0.2064 ± 0.0063
343.15 K, 4390 kPa	678.519 ± 1.4	0.2183 ± 0.0065
343.15 K, 9530 kPa	687.069 ± 1.5	0.2335 ± 0.0068
343.15 K, 14740 kPa	694.891 ± 1.5	0.2471 ± 0.0071
343.15 K, 21230 kPa	703.496 ± 1.5	0.2649 ± 0.0074
353.15 K, 200 kPa	659.151 ± 1.4	0.1889 ± 0.006
353.15 K, 4830 kPa	668.72 ± 1.4	0.203 ± 0.0062
353.15 K, 10320 kPa	678.629 ± 1.4	0.2176 ± 0.0065
353.15 K, 15760 kPa	687.163 ± 1.4	0.2324 ± 0.0068
353.15 K, 21100 kPa	694.71 ± 1.5	0.2466 ± 0.0071
363.15 K, 230 kPa	647.498 ± 1.4	0.1736 ± 0.0057
363.15 K, 4730 kPa	657.763 ± 1.4	0.1871 ± 0.006
363.15 K, 10170 kPa	668.51 ± 1.4	0.2014 ± 0.0062
363.15 K, 15830 kPa	678.192 ± 1.4	0.2152 ± 0.0065
363.15 K, 20860 kPa	685.734 ± 1.4	0.2294 ± 0.0067
373.15 K, 310 kPa	635.452 ± 1.4	0.1602 ± 0.0055
373.15 K, 4730 kPa	646.883 ± 1.4	0.1721 ± 0.0057
373.15 K, 9630 kPa	657.52 ± 1.4	0.1854 ± 0.0059
373.15 K, 15600 kPa	668.559 ± 1.4	0.2008 ± 0.0062
373.15 K, 21680 kPa	678.358 ± 1.4	0.2152 ± 0.0065
